{
  "source": "patent US20220304941A1",
  "about": "“COMPOSITION FOR PREVENTING OR TREATING ORAL DISEASES” (TECOZYME INC, priority 2019, published 2022)",
  "key": {"human fibroblasts": {"test_system": "human fibroblasts", "assay": "Cytotoxicity test: culture viability of human fibroblasts (Cell Counting Kit-8)", "type": "cell-based", "details": "48 hours treatment, FIG. 1", "protocol": "First, to examine the biotoxicity of 1,2,3-butanetriol, culture survival experiments of human fibroblasts according to the concentration change of 1,2,3-butanetriol were conducted.\nThe initial seeding density was 5000 cells/well based on 96 wells, and the culture conditions were as follows:\nDulbecco's Modified Eagle Medium (DMEM)+Fetal Bovine Serum (FBS) 10%; 37° C., 5% CO2; and 12 hours after seeding, 1,2,3-butanetriol was treated at different concentrations to determine cytotoxicity, and after 48 hours of 1,2,3-butanetriol treatment, Dojindo Cell Counting Kit-8 was dispensed at a rate of 10 μl per well and incubated at 37° C. for 2 hours, then cell viability was measured at 450 nm Absorbance.\nFIG. 1 is a graph illustrating the culture viability of human fibroblasts according to the concentration change of 1, 2,3-butanetriol, and the horizontal axis of FIG. 1 indicates the concentration of the treated 1,2,3-butanetriol in an mM unit."}, "bacteria in plaque": {"test_system": "bacteria in plaque", "assay": "Antibacterial test of 1,2,3-butanetriol: growth of cultured plaque bacteria, absorption at 600 nm", "type": "cell-based, oral bacteria", "details": "FIG. 2", "protocol": "Subsequently, to examine the effect of inhibiting bacterial activity in plaque, bacterial strains were prepared as follows. First, plaque was collected from three research participants, and was cultured in a BHI medium (Bovine Heart Infusion 4 g/160 ml distilled water-DDW) with 1 wt. % sucrose added for 24 hours. From the above cultured strain, gDNA was extracted, and the bacteria were identified through PCR. BHI medium (Bovine Heart Infusion 4 g/160 ml distilled water-DDW) with 1wt. % sucrose added was prepared and sterilized in a high-temperature and high-pressure autoclave. Then, 1,2, 3-butanetriol (1,2,3-BT) was dispensed to each concentration, and a 96-well microplate containing 180 μl of the culture solution was prepared. Here, 20 μl of the culture solution in which the bacteria in plaque prepared above was proliferated was dispensed per well. This microplate was placed in a Biotek Synergy 2 microplate reader, the temperature was adjusted to 37° C., and the absorption rate was measured at 600 nm."}, "[1]": {"test_system": "bacteria in plaque (species of Table 1)", "assay": "Antibacterial test of 1,2,3-butanetriol: gDNA extraction and PCR per bacterial species", "type": "cell-based, oral bacteria", "details": "PCR of gDNA after butanetriol treatment, FIG. 3", "from_the_text": "From the above cultured strain, gDNA was extracted, and the bacteria were identified through PCR. [table] Separately from the absorption rate measurement, gDNA was extracted from the well microplate after treatment with butanetriol, and the results identified by PCR are shown in FIG. 3."}},
  "data": [
    {"smiles": "CC(O)C(O)CO", "note": "(racemic) [1,2,3-butanetriol]", "values": [
      {"measurement": "cell viability", "setting": "human fibroblasts; concentration of about 12.5 mM or less", "value": "not significantly reduced"},
      {"measurement": "cell viability", "setting": "human fibroblasts; concentration of about 25 mM", "value": "about 50%"},
      {"measurement": "effect of inhibiting bacterial growth (at least)", "setting": "bacteria in plaque; 12 hours after culturing, compared to no 1,2,3-butanetriol treatment, lowest effect", "value": "at least 10%"},
      {"measurement": "effect of inhibiting bacterial growth (maximum)", "setting": "bacteria in plaque; 12 hours after culturing, compared to no 1,2,3-butanetriol treatment, maximum effect", "value": "≥ 50", "unit": "%"},
      {"measurement": "bacterial growth", "setting": "bacteria in plaque; plaque bacteria in BHI medium with 1 wt. % sucrose, 37° C.", "value": "significantly effectively inhibited"},
      {"measurement": "growth inhibitory effect on each bacterial species", "setting": "[1]", "value": "clearly identified"}
    ]}
  ]
}
